In patent publication US9884868B2, “TGF-beta inhibitors” (Rigel Pharmaceuticals, Inc., priority 2015, dated 2018):
Like-named read-outs stand apart in the source and are kept apart here.

How the values were obtained:
HIS-TGF-βR2 WT = HIS-TGF-βR2 WT (Homo sapiens (Human), UniProt P37173); test: HTRF probe displacement assay with HIS-TGF-βR2 WT
HIS-TGF-βR1 T204D = HIS-TGF-βR1 T204D (Homo sapiens (Human), UniProt P36897, T204D); test: HTRF probe displacement assay with HIS-TGF-βR1 T204D
[1] = read-out: TGFBr2 IC50, HTRF probe displacement, 1 nM HIS-TGF-βR2 WT, 1 hour at room temperature
[2] = read-out: TGFbr1 IC50, HTRF probe displacement, 1 nM HIS-TGF-βR1 T204D, 1 hour at room temperature

Chain of HIS-TGF-βR1 T204D (P36897 34-503 T204D): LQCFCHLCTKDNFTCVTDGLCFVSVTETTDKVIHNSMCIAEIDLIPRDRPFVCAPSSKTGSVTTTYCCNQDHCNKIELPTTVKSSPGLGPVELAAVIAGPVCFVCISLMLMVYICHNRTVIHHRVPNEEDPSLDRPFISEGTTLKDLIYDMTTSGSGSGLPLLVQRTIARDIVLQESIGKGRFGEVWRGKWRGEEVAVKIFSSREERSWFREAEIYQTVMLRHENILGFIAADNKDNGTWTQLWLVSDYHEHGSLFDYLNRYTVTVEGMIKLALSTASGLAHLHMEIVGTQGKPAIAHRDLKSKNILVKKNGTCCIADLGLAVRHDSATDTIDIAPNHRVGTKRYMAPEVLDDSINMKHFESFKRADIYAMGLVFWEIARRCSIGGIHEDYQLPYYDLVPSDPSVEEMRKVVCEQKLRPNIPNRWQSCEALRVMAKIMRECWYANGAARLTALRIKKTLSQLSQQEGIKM
Chain of HIS-TGF-βR2 WT (P37173 23-567): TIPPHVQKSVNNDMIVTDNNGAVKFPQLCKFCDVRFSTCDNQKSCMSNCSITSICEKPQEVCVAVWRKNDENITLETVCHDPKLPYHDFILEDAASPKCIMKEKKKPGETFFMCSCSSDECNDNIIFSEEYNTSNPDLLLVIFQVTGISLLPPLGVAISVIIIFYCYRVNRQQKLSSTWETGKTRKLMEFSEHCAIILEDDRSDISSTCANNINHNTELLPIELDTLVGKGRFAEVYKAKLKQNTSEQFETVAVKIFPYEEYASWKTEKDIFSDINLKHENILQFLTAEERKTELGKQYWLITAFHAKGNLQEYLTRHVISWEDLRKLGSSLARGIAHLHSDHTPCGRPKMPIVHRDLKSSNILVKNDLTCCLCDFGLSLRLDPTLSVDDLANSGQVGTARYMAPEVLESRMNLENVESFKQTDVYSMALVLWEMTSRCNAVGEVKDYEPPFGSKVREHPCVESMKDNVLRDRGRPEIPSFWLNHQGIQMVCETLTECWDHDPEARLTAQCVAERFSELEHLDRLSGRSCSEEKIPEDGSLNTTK

IC50 (HIS-TGF-βR2 WT; [1]) [nM] | IC50 (HIS-TGF-βR1 T204D; [2]) [nM] | IC50 (HIS-TGF-βR2 WT) [nM] | IC50 (HIS-TGF-βR1 T204D) [nM] | SMILES
> 15000 | 28.1 |  |  | CC(C)(O)CCn1cnc(-c2ccc(F)cc2)c1-c1ccc2ncc(C(N)=O)n2n1 [131′, 6-(4-(4-fluorophenyl)-1-(3-hydroxy-3-methylbutyl)-1H-imidazol-5-yl)imidazo[1,2-b]pyridazine-3-carboxamide]
> 15000 | 43.8 |  |  | CC(C)(C)C(=O)NCc1cnc2ccc(-c3c(-c4ccc(F)cc4)ncn3CC(F)F)nn12 [Example 202′, N-((6-(1-(2,2-difluoroethyl)-4-(4-fluorophenyl)-1H-imidazol-5-yl)imidazo[1,2-b]pyridazin-3-yl)methyl)pivalamide]
> 15000 | 9.5 |  |  | O=C(NC1CC1)c1cnc2ccc(-c3c(-c4ccc(F)cc4)ncn3CC(F)F)cn12 [Example 279′, N-cyclopropyl-6-(1-(2,2-difluoroethyl)-4-(4-fluorophenyl)-1H-imidazol-5-yl)imidazo[1,2-a]pyridine-3-carboxamide]
> 15000 | 9.5 |  |  | CC(C)(C)NC(=O)NCc1cnc2ccc(-c3c(-c4ccc(F)cc4)ncn3CC(F)F)nn12 [Example 199′, 1-(tert-butyl)-3-((6-(1-(2,2-difluoroethyl)-4-(4-fluorophenyl)-1H-imidazol-5-yl)imidazo[1,2-b]pyridazin-3-yl)methyl)urea]
> 15000 | 6.5 |  |  | NC(=O)c1cnc2ccc(-c3c(-c4ccc(F)c(Cl)c4)ncn3CCN3CCOCC3)cn12 [120′, 6-(4-(3-chloro-4-fluorophenyl)-1-(2-morpholinoethyl)-1H-imidazol-5-yl)imidazo[1,2-a]pyridine-3-carboxamide]
> 15000 | 436 |  |  | CC(C)(C)NC(=O)N1CC(n2cnc(-c3ccc(F)cc3)c2-c2ccc3ncc(C(N)=O)n3n2)C1 [Example 195′, 6-(1-(1-(tert-butylcarbamoyl)azetidin-3-yl)-4-(4-fluorophenyl)-1H-imidazol-5-yl)imidazo[1,2-b]pyridazine-3-carboxamide]
> 15000 | 30.5 |  |  | COC(=O)N1CCn2c(nc(-c3ccc(F)cc3)c2-c2ccc3ncc(C(N)=O)n3c2)C1 [Example 291′, methyl 3-(3-carbamoylimidazo[1,2-a]pyridin-6-yl)-2-(4-fluorophenyl)-5,6-dihydroimidazo[1,2-a]pyrazine-7(8H)-carboxylate]
 |  | > 15000 | 4.6 | NC(=O)c1cnc2ccc(-c3c(-c4ccc(F)c(Cl)c4)ncn3CCC(F)(F)F)nn12 [115′, 6-(4-(3-chloro-4-fluorophenyl)-1-(3,3,3-trifluoropropyl)-1H-imidazol-5-yl)imidazo[1,2-b]pyridazine-3-carboxamide]
> 15000 | 227 |  |  | CC(C)(C)NC(=O)N1CC(n2cnc(-c3ccc(F)cc3)c2-c2ccc3ncc(C#N)n3n2)C1 [Example 193′, N-(tert-butyl)-3-(5-(3-cyanoimidazo[1,2-b]pyridazin-6-yl)-4-(4-fluorophenyl)-1H-imidazol-1-yl)azetidine-1-carboxamide]
> 15000 | 9.8 |  |  | CC(C)(O)c1cccc(-c2ncn(CC(F)F)c2-c2ccc3ncc(C#N)n3n2)c1 [265′, 6-(1-(2,2-difluoroethyl)-4-(3-(2-hydroxypropan-2-yl)phenyl)-1H-imidazol-5-yl)imidazo[1,2-b]pyridazine-3-carbonitrile]
> 15000 | 65.7 |  |  | N#Cc1cnc2ccc(-c3c(-c4ccc(F)c(Cl)c4)ncn3C3CC(F)(F)C3)cn12 [99′, 6-(4-(3-chloro-4-fluorophenyl)-1-(3,3-difluorocyclobutyl)-1H-imidazol-5-yl)imidazo[1,2-a]pyridine-3-carbonitrile]
> 15000 | 171 |  |  | CC(C)Oc1ccc(-c2ncn(CC(F)F)c2-c2ccc3ncc(C#N)n3n2)cc1 [263′, 6-(1-(2,2-difluoroethyl)-4-(4-isopropoxyphenyl)-1H-imidazol-5-yl)imidazo[1,2-b]pyridazine-3-carbonitrile]
> 15000 | 9.1 |  |  | NC(=O)c1cnc2ccc(-c3c(-c4ccc(F)c(Cl)c4)ncn3CCN3CCCC3)nn12 [143′, 6-(4-(3-chloro-4-fluorophenyl)-1-(2-(pyrrolidin-1-yl)ethyl)-1H-imidazol-5-yl)imidazo[1,2-b]pyridazine-3-carboxamide]
> 15000 | 3.5 |  |  | N#Cc1cnc2ccc(-c3c(-c4ccc(F)cc4)ncn3C3CCCCC3O)nn12 (stereo not shown) [17′, 6-(4-(4-fluorophenyl)-1-(2-hydroxycyclohexyl)-1H-imidazol-5-yl)imidazo[1,2-b]pyridazine-3-carbonitrile]
> 15000 | 4.1 |  |  | NC(=O)c1cnc2ccc(-c3c(-c4ccc(F)c(Cl)c4)ncn3C3CCOCC3)nn12 [144′, 6-(4-(3-chloro-4-fluorophenyl)-1-(tetrahydro-2H-pyran-4-yl)-1H-imidazol-5-yl)imidazo[1,2-b]pyridazine-3-carboxamide]
> 15000 | 3.2 |  |  | NC(=O)CNC(=O)c1cnc2ccc(-c3c(-c4ccc(F)cc4)ncn3CC(F)F)cn12 [280′]

IC50 (HIS-TGF-βR2 WT; [1]) [nM] | IC50 (HIS-TGF-βR1 T204D; [2]) [nM] | IC50 (HIS-TGF-βR2 WT) [nM] | IC50 (HIS-TGF-βR1 T204D) [nM] | SMILES
 |  | > 15000 | 576 | N#Cc1cnc2ccc(-c3c(-c4ccc(F)cc4)ncn3CC(O)C(F)(F)F)cn12 (stereo not shown) [93′, 6-(4-(4-fluorophenyl)-1-(3,3,3-trifluoro-2-hydroxypropyl)-1H-imidazol-5-yl)imidazo[1,2-a]pyridine-3-carbonitrile]
> 15000 | 2.1 |  |  | NC(=O)c1cnc2ccc(-c3c(-c4ccc(F)cc4)ncn3C3CCC(F)(F)C3)nn12 (stereo not shown) [108′, 6-(1-(3,3-difluorocyclopentyl)-4-(4-fluorophenyl)-1H-imidazol-5-yl)imidazo[1,2-b]pyridazine-3-carboxamide]
> 15000 | 3.1 |  |  | N#Cc1cnc2ccc(-c3c(-c4ccc(F)c(Cl)c4)ncn3C3CCOCC3)nn12 [48′, 6-(4-(3-chloro-4-fluorophenyl)-1-(tetrahydro-2H-pyran-4-yl)-1H-imidazol-5-yl)imidazo[1,2-b]pyridazine-3-carbonitrile]
> 15000 | 31.9 |  |  | CN(C)CCCn1cnc(-c2ccc(F)cc2)c1-c1ccc2ncc(C(N)=O)n2c1 [163′, 6-(1-(3-(dimethylamino)propyl)-4-(4-fluorophenyl)-1H-imidazol-5-yl)imidazo[1,2-a]pyridine-3-carboxamide]
> 15000 | 1 |  |  | NC(=O)c1cnc2ccc(-c3c(-c4cc(Cl)c(F)cc4F)ncn3CC(F)F)cn12 [235′, 6-(4-(5-chloro-2,4-difluorophenyl)-1-(2,2-difluoroethyl)-1H-imidazol-5-yl)imidazo[1,2-a]pyridine-3-carboxamide]
> 15000 | 1.1 |  |  | NC(=O)c1cnc2ccc(-c3c(-c4ccc(F)c(Cl)c4)ncn3C3CC(F)(F)C3)cn12 [121′, 6-(4-(3-chloro-4-fluorophenyl)-1-(3,3-difluorocyclobutyl)-1H-imidazol-5-yl)imidazo[1,2-a]pyridine-3-carboxamide]
> 15000 | 49.1 |  |  | CC(=O)Nc1cccc(-c2ncn(CC(F)F)c2-c2ccc3ncc(C#N)n3n2)c1 [245′, N-(3-(5-(3-cyanoimidazo[1,2-b]pyridazin-6-yl)-1-(2,2-difluoroethyl)-1H-imidazol-4-yl)phenyl)acetamide]
> 15000 | 244 |  |  | CC(C)(C)OC(=O)N1CC(n2cnc(-c3ccc(F)cc3)c2-c2ccc3ncc(C(N)=O)n3n2)C1 [195A′, tert-butyl 3-(5-(3-carbamoylimidazo[1,2-b]pyridazin-6-yl)-4-(4-fluorophenyl)-1H-imidazol-1-yl)azetidine-1-carboxylate]
> 15000 | 72.7 |  |  | CC(=O)N1CC(n2cnc(-c3ccc(F)cc3)c2-c2ccc3ncc(C#N)n3n2)C1 [Example 191′, 6-(1-(1-acetylazetidin-3-yl)-4-(4-fluorophenyl)-1H-imidazol-5-yl)imidazo[1,2-b]pyridazine-3-carbonitrile]
> 15000 | 8.8 |  |  | N#Cc1cnc2ccc(-c3c(-c4ccc(F)c(C(F)(F)F)c4)ncn3CC(F)F)nn12 [260′, 6-(1-(2,2-difluoroethyl)-4-(4-fluoro-3-(trifluoromethyl)phenyl)-1H-imidazol-5-yl)imidazo[1,2-b]pyridazine-3-carbonitrile]
> 15000 | 121 |  |  | Fc1ccc(-c2ncn(CC(F)F)c2-c2ccc3ncc(CNCC(F)F)n3c2)cc1 [Example 275′, N-((6-(1-(2,2-difluoroethyl)-4-(4-fluorophenyl)-1H-imidazol-5-yl)imidazo[1,2-a]pyridin-3-yl)methyl)-2,2-difluoroethanamine]
> 15000 | 4.5 |  |  | COC(=O)Nc1cnc2ccc(-c3c(-c4ccc(F)cc4)ncn3CC(F)F)nn12 [Example 211′, methyl (6-(1-(2,2-difluoroethyl)-4-(4-fluorophenyl)-1H-imidazol-5-yl)imidazo[1,2-b]pyridazin-3-yl)carbamate]
 |  | > 15000 | 6.7 | N#Cc1cnc2ccc(-c3c(-c4ccc(F)c(Cl)c4)ncn3CC(O)C(F)(F)F)nn12 (stereo not shown) [55′, 6-(4-(3-chloro-4-fluorophenyl)-1-(3,3,3-trifluoro-2-hydroxypropyl)-1H-imidazol-5-yl)imidazo[1,2-b]pyridazine-3-carbonitrile]
> 15000 | 1.8 |  |  | N#Cc1cnc2ccc(-c3c(-c4cccc(C(F)(F)F)c4)ncn3CC(F)F)nn12 [243′, 6-(1-(2,2-difluoroethyl)-4-(3-(trifluoromethyl)phenyl)-1H-imidazol-5-yl)imidazo[1,2-b]pyridazine-3-carbonitrile]
> 15000 | 76.8 |  |  | N#Cc1cnc2ccc(-c3c(-c4ccc(F)c(Cl)c4)ncn3CCN3CCOCC3)cn12 [95′, 6-(4-(3-chloro-4-fluorophenyl)-1-(2-morpholinoethyl)-1H-imidazol-5-yl)imidazo[1,2-c]pyridine-3-carbonitrile]
> 15000 | 542 |  |  | CC(=O)Nc1nc(-c2ccc(F)cc2)c(-c2ccc3ncc(C#N)n3c2)n1CC(F)F [297′]
